From patent publication US20010056089A1, “Novel crystal of cephalosporin compound” (FUJISAWA PHARMACEUTICAL CO., LTD., priority 1995, published 2001)

Key:
[1] = Urinary excretion after oral administration; type: in vivo; settings: male, SD, rat, urine; rats fasted overnight, 20 mg/kg oral, suspended in 0.5% methylcellulose; disk plate diffusion, Bacillus subtilis ATCC 6633; read-out: Recovery in 24-hrs urine (%)
Protocol: (C) Urinary Excretion Test Method Male SD rats (6-7 weeks old) from JCL were used. The test compound was suspended in 0.5% methylcellulose solution. The rats were fasted overnight before administration of 20 mg/kg. The urine was collected in the time slots of 0-6 and 6-24 hours after oral administration and the urinary recovery was determined by the disk plate diffusion method using Bacillus subtilis ATCC 6633 as the test organism and sodium citrate agar (0.8% sodium citrate, 0.5% polypeptone, 0.3% beef extract, and 1.0% agar) as the test medium.

[2] = Stability test of the crystal of Example 2 (conditions not stated); type: physicochemical
[3] = Stability test (1): one-month stability in an airtight container at 40° C.; type: physicochemical; settings: potency by liquid chromatography
Protocol: The water-containing crystals and isopropyl alcohol and water-containing crystals of Compound (I) or a salt thereof obtained in Examples 5, 7 and 8(1) were tested.
The one-month stability of each test sample in an airtight container at 40° C. was evaluated.
The potency of each test sample was determined by liquid chromatography and the percentage residue of Compound (I) or a salt thereof was calculated.

[4] = Stability test (2): 9-day stability in an airtight container at 70° C.; type: physicochemical; settings: potency by liquid chromatography
Protocol: Four lots of the isopropyl alcohol and water-containing crystal of compound (I) as obtained in Example 8 (2) were used.
The 9-day stability of each test sample in an airtight container at 70° C. was determined. The potency of each test sample was determined by liquid chromatography and the percentage residue was calculated.

Residue (%) [3] | Residue (%) [4] | SMILES | also measured
– | 98.0% | Nc1nc(/C(=N/O)C(=O)NC2C(=O)N3C(C(=O)O)=C(SCc4cn[nH]c4)CSC23)cs1 (stereo not drawn) [Example 35434OP] | –
– | 99.2% | Nc1nc(/C(=N/O)C(=O)NC2C(=O)N3C(C(=O)O)=C(SCc4cn[nH]c4)CSC23)cs1 (stereo not drawn) [Example 35534OP] | –
– | 98.0% | Nc1nc(/C(=N/O)C(=O)NC2C(=O)N3C(C(=O)O)=C(SCc4cn[nH]c4)CSC23)cs1 (stereo not drawn) [Example 37914XP] | –

Further lines, the compound ahead of its results:

SMILES | Residue (%) [3] | Residue (%) [4] | also measured
Nc1nc(/C(=N/O)C(=O)N[C@@H]2C(=O)N3C(C(=O)O)=C(SCc4cn[nH]c4)CS[C@H]23)cs1 [Compound (I), 7β-[2-(2-aminothiazol-4-yl)-2-(Z)-(hydroxyimino)acetamido]-3-[(pyrazol-4-yl)methylthio]-3-cephem-4-carboxylic acid] | – | – | dose excreted [1]: 50%
Nc1nc(/C(=N/O)C(=O)N[C@@H]2C(=O)N3C(C(=O)O)=C(SCc4cn[nH]c4)CS[C@H]23)cs1 [Example 2, 7β-[2-(2-aminothiazol-4-yl)-2-(Z)-(hydroxyimino)acetamido]-3-[(pyrazol-4-yl)methylthio]-3-cephem-4-carboxylic acid] | – | – | stability in the stability test [2]: stable
Nc1nc(/C(=N/O)C(=O)N[C@@H]2C(=O)N3C(C(=O)O)=C(SCc4cn[nH]c4)CS[C@H]23)cs1 [Example 5, 7β-[2-(2-amino-thiazol-4-yl)-2-(Z)-(hydroxyimino)acetamido]-3-[(pyrazol-4-yl)methylthio]-3-cephem-4-carboxylic acid] | 98.2% | – | –
Nc1nc(/C(=N/O)C(=O)N[C@@H]2C(=O)N3C(C(=O)O)=C(SCc4cn[nH]c4)CS[C@H]23)cs1 [Example 7, 7β-[2-(2-aminothiazol-4-yl)-2-(Z)-(hydroxyimino)acetamido]-3-[(pyrazol-4-yl)methylthio]-3-cephem-4-carboxylic acid] | 99.2% | – | –
Nc1nc(/C(=N/O)C(=O)N[C@@H]2C(=O)N3C(C(=O)O)=C(SCc4cn[nH]c4)CS[C@H]23)cs1 [Example 8(1), 7β-[2-(2-aminothiazol-4-yl)-2-(Z)-(hydroxyimino)acetamido]-3-[(pyrazol-4-yl)methylthio]-3-cephem-4-carboxylic acid] | 98.5% | – | –
Nc1nc(/C(=N/O)C(=O)NC2C(=O)N3C(C(=O)O)=C(SCc4cn[nH]c4)CSC23)cs1 (stereo not drawn) [Example 35414OP] | – | 98.7% | –
